{"source": "patent US20130123367A1", "about": "“VINYLOGOUS CHALCONE DERIVATIVES AND THEIR MEDICAL USE” (MEDIZINISCHE UNIVERSITAT WIEN, priority 2010, published 2013)", "key": {"[1]": {"test_system": "colon cancer cell line SW480", "assay": "Cell proliferation assay using crystal violet, SW480", "format": "cell-based", "conditions": "Homo sapiens, n = 3, 24 h incubation", "method": "(§1) For quantification, cells are treated with crystal violet, a dye that stains proteins. After washing away of excess dye, the remaining crystal violet is dissolved in a sodium citrate solution. The solution is analyzed photometrically at 590 nm. The optical density of this solution depends on the concentration of crystal violet and therefore on the amount of cells. […] To reduce effects of evaporation, only the inner 60 wells of 96-well plates (coated with 0.1% gelatine solution for studies with HUVEC) were used for experiments.\n(§2) Cells were seeded at a density of 5 000 cells per well in 100 μl growth medium (HUVEC) or 20 000 (HCT116), 15 000 (SW480 and 518A2) or 10 000 (HT29) cells per well in 200 μl growth medium in 55 wells per plate. 5 wells were filled with medium only. Additionally, a 96-well plate with cells in 12 wells and medium in 6 wells was prepared as T0-plate. The next day, additional 98 μl of growth medium were added in every well (only HUVEC).\n(§3) Cells were treated with 2 μl of the working solution 24 h after seeding. Final compound concentrations in the well were 10 μM for the first round of screening. The final DMSO concentration was 0.5%. […] After finishing the addition of compounds, the T0-plate was stained with crystal violet for giving the cell density at time point zero. Before staining, the growth medium was poured away. Wells were filled with 50 μl crystal violet solution for 10 min. Then the staining solution was washed away with water. Since crystal violet is environmentally hazardous the waste was collected and disposed in an appropriate manner. After air drying of the plates the crystal violet on the cells was dissolved in 100 μl of sodium citrate solution, and the absorption was measured with a plate reader at 590 nm.\n(§4) Mean values were corrected with the absorption of stained medium and the corrected absorption of T0 cells. Cell growth was calculated relative to DMSO control for data comparison. IC50 values (50% inhibition of cell growth) were determined with GraphPad Prism® (Version 4.03) using nonlinear regression (sigmoidal dose-response with variable slope).\n(§5) Compounds showing an inhibition of proliferation of more than 50% at a concentration of 10 μM were defined as active, and their IC50-values were determined."}, "melanoma cell line 518A2 [2]": {"test_system": "melanoma cell line 518A2", "assay": "Cell proliferation assay using crystal violet, 518A2", "format": "cell-based", "conditions": "Homo sapiens, 518A2; crystal violet assay; n = 3; 48 h incubation", "method": "as §1, §2, §3, §4, §5"}, "[3]": {"test_system": "colon cancer cell line HT29", "assay": "Cell proliferation assay using crystal violet, HT29", "format": "cell-based", "conditions": "Homo sapiens, HT-29, n = 3, 24 h incubation", "method": "as §1, §2, §3\nas §4, with “slope). […]” for “slope).”"}, "HCT116 cell line": {"test_system": "HCT116 cell line", "assay": "Cell proliferation assay using crystal violet, HCT116", "format": "cell-based", "conditions": "Homo sapiens, HCT-116, n = 3, 24 h incubation", "method": "as §1, §2, §3\n(§6) Mean values were corrected with the absorption of stained medium and the corrected absorption of T0 cells. Cell growth was calculated relative to DMSO control for data comparison."}, "HUVEC": {"test_system": "HUVEC", "assay": "Cell proliferation assay using crystal violet, HUVEC", "format": "cell-based", "conditions": "Homo sapiens, n = 3, 48 h incubation, read-out: IC50 (nM) HUVEC (converted)", "method": "as §1, §2, §3, §6"}, "melanoma cell line 518A2 [4]": {"test_system": "melanoma cell line 518A2", "conditions": "stated as comparison, no experiment described; read-out: IC50 value of cisplatin, comparison for melanoma cell line 518A2; cited from earlier work"}, "[5]": {"test_system": "healthy peripheral blood mononuclear cells (PBMC)", "assay": "Effect on healthy PBMC (CellTiter-Blue viability)", "conditions": "48 h incubation; one individual; FIG. 8", "method": "FIG. 8: Effect of compounds 1 and 22 according to the invention as well as the control drugs fludarabine and cyclophosphamide on the viability of healthy peripheral blood mononuclear cells (PBMC) in suspension culture after 48 h incubation. Data points represent one individual calculated in relation to the control. Viability was measured using the CellTiter Blue assay (Promega, Madison, Wis., USA), and cells incubated in solvent only were used as control.\nFor quantification, cells were treated with resazurin (7-hydroxy-3H-phenoxazin-3-one 10-oxide) as indicator of cell viability. The method is based on the finding that living cells are able to reduce the non-fluorescent blue dye into the pink colored and highly red fluorescent resorufine. After adding the substrate the cells are incubated for 2 to 4 hours. Then, the solution is analyzed at 560 nm Ex/590 nm Em on a fluorometer. Appropriate cell density for seeding and duration of treatment with the substrate were determined in preliminary experiments.\nFirst, cells were seeded in 96 well plates and then growth medium was added to each well to get a final volume of 80 μl. Compounds to be tested were diluted with medium from a 10 mM stock solution in DMSO to get different concentrations, and 20 μl of these solutions were added to the wells. The final DMSO concentration was 0.5%. All treatments and controls were performed in at least triplicates. Cells were incubated at 37° C. and 5% CO2 for 48 h. Then, 20 μl substrate solution was added to the wells, plates were incubated for 3 hours and analyzed.\nThe impact of the compounds according to the invention on healthy cells was assessed using peripheral blood mononuclear cells (PBMC). Cell viability was tested using the CellTiter-Blue Cell Viability Assay (Promega, Madison, Wis., USA) as described in Example 7."}, "[6]": {"test_system": "CLL cell lines MEC-1 and MEC-2", "assay": "Annexin V-FITC / propidium iodide staining, apoptosis in CLL cell lines", "format": "cell-based", "conditions": "MEC-1 cells, 500 nM, 48 hours (FIG. 4b); called an outlier, not seen after 24 hours", "method": "Apoptosis was detected using propidium iodide/Annexin V FACS staining (Bender MedSystems).\nAnnexin V binds to phosphatidylserine which is exposed at the cell surface during execution of apoptosis. First, cells were seeded out at a density of 1.5 to 2.5 million cells per well in 12 well plates and then growth medium was added to each well to get a final volume of 2.5 ml. Compounds to be tested were diluted with medium from a 10 mM stock solution in DMSO to get different concentrations and cells were treated with 25 μl of these solutions. The final DMSO concentration was 0.5%. All treatments and controls were performed twice. Cells were incubated at 37° C. and 5% CO2 for 24 h and 48 h. Then, growth medium was removed by centrifugation, the supernatant discarded and 200 μl of an Annexin V solution were added. After 10 minutes in the dark, cells were washed once with Annexin buffer and the solution removed by centrifugation. The supernatant was discarded again and cells were suspended in 200 μl of a propidium iodide solution. Cells were measured by flow cytometry with a total of 10 000 events. Data were analyzed with CellQuest Pro™.\nCompounds 1 and 22 were also tested on the CLL cell lines MEC-1 and MEC-2 in comparison with fludarabine and cyclophosphamide, two compounds used in the treatment of hematological malignancies (MEC-1 is a fludarabine-resistant cell line)."}}, "note": "Like-named read-outs stand apart in the source and are kept apart here."}
{"molecule": "COc1ccccc1/C=C/C=C/C(=O)c1cc(OC)c(O)c(OC)c1", "values": [{"measurement": "IC50", "setting": "[1]", "value": 2680, "unit": "nM"}, {"measurement": "IC50", "setting": "melanoma cell line 518A2 [2]", "value": 2750, "unit": "nM"}, {"measurement": "IC50", "setting": "[3]", "value": 5790, "unit": "nM"}]}
{"molecule": "COc1cc(C(=O)/C=C/C=C/c2ccccc2SC)cc(OC)c1OC", "values": [{"measurement": "IC50", "setting": "[1]", "value": 260, "unit": "nM"}, {"measurement": "IC50", "setting": "melanoma cell line 518A2 [2]", "value": 160, "unit": "nM"}, {"measurement": "IC50", "setting": "[3]", "value": 240, "unit": "nM"}]}
{"molecule": "COc1cc(C(=O)/C=C/C=C/c2ccccc2)cc(OC)c1OC", "values": [{"measurement": "IC50", "setting": "HCT116 cell line", "value": 4340, "unit": "nM"}]}
{"molecule": "COc1cccc(/C=C/C=C/C(=O)c2cc(OC)c(OC)c(OC)c2)c1", "values": [{"measurement": "IC50", "setting": "HCT116 cell line", "value": 4500, "unit": "nM"}, {"measurement": "IC50", "setting": "HUVEC", "value": 3210, "unit": "nM"}]}
{"molecule": "COc1cc(C(=O)/C=C/C=C/c2ccccc2Cl)cc(OC)c1OC", "values": [{"measurement": "IC50", "setting": "HUVEC", "value": 1770, "unit": "nM"}]}
{"molecule": "COc1cccc(/C=C/C=C/C(=O)c2ccccc2OC)c1", "values": [{"measurement": "IC50", "setting": "HCT116 cell line", "value": "> 10000", "unit": "nM"}, {"measurement": "IC50", "setting": "HUVEC", "value": 8810, "unit": "nM"}]}
{"molecule": "COc1ccccc1/C=C/C=C/C(=O)c1ccc(Cl)c([N+](=O)[O-])c1", "values": [{"measurement": "IC50", "setting": "HUVEC", "value": 5630, "unit": "nM"}]}
{"molecule": "C=Cc1ccccc1/C=C/C=C/C(=O)c1ccccc1OC", "values": [{"measurement": "IC50", "setting": "HCT116 cell line", "value": 804, "unit": "nM"}, {"measurement": "IC50", "setting": "HUVEC", "value": 760, "unit": "nM"}]}
{"molecule": "CCOc1ccccc1C(=O)/C=C/c1ccc(OC)c2ccccc12", "values": [{"measurement": "IC50", "setting": "[1]", "value": "> 10000", "unit": "nM"}, {"measurement": "IC50", "setting": "melanoma cell line 518A2 [2]", "value": "> 10000", "unit": "nM"}]}
{"molecule": "COc1ccc(C(=O)/C=C/c2ccc(OC)c3ccccc23)cc1OC", "values": [{"measurement": "IC50", "setting": "HCT116 cell line", "value": "> 10000", "unit": "nM"}, {"measurement": "IC50", "setting": "HUVEC", "value": "> 10000", "unit": "nM"}]}
{"molecule": "COc1ccccc1C(=O)/C=C/c1ccc(OC)c2ccccc12", "values": [{"measurement": "IC50", "setting": "HCT116 cell line", "value": 6850, "unit": "nM"}]}
{"molecule": "N.N.[Cl][Pt][Cl]", "note": "[cisplatin]", "values": [{"measurement": "IC50", "setting": "melanoma cell line 518A2 [4]", "value": "~10", "unit": "µM"}]}
{"molecule": "O=P1(N(CCCl)CCCl)NCCCO1", "note": "(stereo not drawn) [cyclophosphamide, reference compound]", "values": [{"measurement": "viability of healthy PBMC in suspension culture (toxicity)", "setting": "[5]", "value": "did not influence viability"}, {"measurement": "apoptosis induction", "setting": "[6]", "value": 40, "unit": "%"}]}
{"molecule": "Nc1nc(F)nc2c1ncn2[C@@H]1O[C@H](CO)[C@@H](O)[C@@H]1O", "note": "[fludarabine, reference compound]", "values": [{"measurement": "viability of healthy PBMC in suspension culture (toxicity)", "setting": "[5]", "value": "the most toxic of the tested compounds"}]}
